For one assay, the target named is T1, human recombinant PKM2 (Homo sapiens, UniProt P14618).
T1 construct: purchased Sigma SAE0021
Description: Pyruvate kinase activity enzyme assay, recombinant enzyme (LDH-coupled, NADH depletion at 340 nm). Format: biochemical. The following applies: normalized to DMSO-treated PKM2 activity; for EC50: recombinant PKM2 20 nM; for Emax / Max Activation: recombinant PKM2; for Emax: read-out: Max Activation. On the procedure:
Pyruvate Kinase Activity Enzyme Assay. Recombinant Enzyme. A continuous, enzyme-coupled assay, which uses lactate dehydrogenase (LDH) and measures the depletion of NADH via absorbance at 340 nm was utilized to determine the pyruvate kinase activity. For AC50 measurements (concentration of activator necessary to achieve half-maximal activation) with ML-265, assays were performed in 96-well format using 200 μL/well assay volume with final concentrations of 20 nM human recombinant PKM2 (Sigma, SAE0021), differing concentrations of ML-265, 0.5 mM PEP, 1 mM ADP, 0.2 mM NADH, and 8 U of lactate dehydrogenase (LDH) in an assay buffer of 50 mM Tris-HCl (pH 7.4), 100 mM KCl, and 5 mM MgCl2. The decrease in absorbance at 340 nm was monitored using a SPECTROstar Omega plate reader (BMG LABTECH Inc., Cary, NC, USA). Initial velocities were calculated with the MARS software. Data were normalized to DMSO (dimethyl sulfoxide)-treated PKM2 activity.

Assay [1] addresses T2, pyruvate kinase activity, 661W cell line (Mus musculus, UniProt P52480).
T2 construct: endogenous in cells; host or cells: 661W cell line
Nature of the assay: Pyruvate kinase activity in 661W cell lysates after 2 hours treatment. The following applies: 661W cells, 2 hours incubation, activity normalized to total protein; for Emax: read-out: Max Activation (cell). Format: cell-based. On the procedure: Cell culture. For 661W cell line experiments, media was replaced prior to the start of treatment with DMSO or ML-265. Cells were incubated with DMSO or different concentrations of ML-265 for 2 hours. Cells were lysed and homogenized in RIPA Lysis and Extraction Buffer (Catalog number: 89900, Life Technologies Corporation, Grand Island, NY) with protease inhibitors (Complete-Mini, Roche Diagnostics, Indianapolis, IN) and cellular debris was removed by centrifugation at 10,000 rpm for 10 minutes. Ten microliters of the supernatant was used to assess pyruvate kinase activity, and the activity was normalized to total protein content as previously described.

T1 sequence (P14618 whole entry): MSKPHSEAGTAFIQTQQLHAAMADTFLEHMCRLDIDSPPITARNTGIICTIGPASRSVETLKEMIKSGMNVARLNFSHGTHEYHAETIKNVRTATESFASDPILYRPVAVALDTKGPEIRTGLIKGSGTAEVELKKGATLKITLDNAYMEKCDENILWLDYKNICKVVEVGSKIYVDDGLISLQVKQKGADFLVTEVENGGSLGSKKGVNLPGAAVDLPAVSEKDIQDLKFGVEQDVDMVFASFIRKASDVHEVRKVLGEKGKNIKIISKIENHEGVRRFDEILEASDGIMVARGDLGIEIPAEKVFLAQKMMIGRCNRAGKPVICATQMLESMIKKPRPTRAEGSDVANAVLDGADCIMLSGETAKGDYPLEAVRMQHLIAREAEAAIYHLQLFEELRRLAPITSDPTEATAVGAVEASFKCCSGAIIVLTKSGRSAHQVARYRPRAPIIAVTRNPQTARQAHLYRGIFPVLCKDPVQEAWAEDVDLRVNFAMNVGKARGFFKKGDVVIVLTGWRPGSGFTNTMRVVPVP
T2 sequence (P52480 whole entry): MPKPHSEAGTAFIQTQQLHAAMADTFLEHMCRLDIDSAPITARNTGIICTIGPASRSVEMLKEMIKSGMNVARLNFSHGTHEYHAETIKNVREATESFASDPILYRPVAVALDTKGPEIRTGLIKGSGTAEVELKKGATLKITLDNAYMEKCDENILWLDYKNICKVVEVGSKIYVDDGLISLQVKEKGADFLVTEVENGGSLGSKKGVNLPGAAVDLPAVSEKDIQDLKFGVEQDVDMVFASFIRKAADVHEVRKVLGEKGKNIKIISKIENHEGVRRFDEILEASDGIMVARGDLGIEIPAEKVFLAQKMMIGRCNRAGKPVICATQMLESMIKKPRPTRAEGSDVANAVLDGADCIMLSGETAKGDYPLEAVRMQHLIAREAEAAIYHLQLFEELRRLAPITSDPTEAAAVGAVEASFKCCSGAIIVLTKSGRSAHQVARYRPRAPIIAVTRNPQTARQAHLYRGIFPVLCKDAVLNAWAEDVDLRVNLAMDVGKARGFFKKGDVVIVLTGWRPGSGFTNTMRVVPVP

Regarding `Cn1c2cc(Oc3nccc4[nH]ncc34)ccc2c2cnn(Cc3ccccc3F)c(=O)c21` [Example 71, 7-((1H-pyrazolo[4,3-c]pyridin-4-yl)oxy)-3-(2-fluorobenzyl)-5-methyl-3,5-dihydro-4H-pyridazino[4,5-b]indol-4-one], at human recombinant PKM2, the EC50 came out at 0.028 µM and the Emax is 165%. Further, in assay [1], the EC50 came out at 0.069 µM and the Emax is 278%.
As to `Cc1cccc(Cn2ncc3c4ccc(Oc5cccc(O)n5)cc4n(C)c3c2=O)n1` [Example 63, 7-((6-hydroxypyridin-2-yl)oxy)-5-methyl-3-((6-methylpyridin-2-yl)methyl)-3,5-dihydro-4H-pyridazino[4,5-b]indol-4-one], the 50% effective concentration (EC50) at human recombinant PKM2 came to 0.031 µM; in assay [1], 0.078 µM. In addition, the Emax on human recombinant PKM2 stood at 219%; in assay [1], 302%.
On to `Cn1c2cc(Oc3cccc(F)n3)ccc2c2cnn(Cc3cc[nH]n3)c(=O)c21` [Example 86, 3-((1H-pyrazol-3-yl)methyl)-7-((6-fluoropyridin-2-yl)oxy)-5-methyl-3,5-dihydro-4H-pyridazino[4,5-b]indol-4-one], for which, on human recombinant PKM2, the EC50 was 0.063 µM and the Emax was found to be 195%. In assay [1], a half-maximal effect (EC50) was put at 0.172 µM and the Emax came out at 352%.
For the compound `Cc1cc2c3cnn(Cc4ccccc4F)c(=O)c3n(C)c2s1` [Example 16, 6-(2-Fluorobenzyl)-2,8-dimethyl-6,8-dihydro-7H-thieno[3′,2′:4,5]pyrrolo[2,3-d]pyridazin-7-one], on human recombinant PKM2, the concentration for a half-maximal effect (EC50) was determined as 0.04 µM and the Emax came out at 231%. Further, in assay [1], the EC50 stood at 0.058 µM and the Emax worked out at 279%.
Consider `COc1cc2c(cc1F)c1cnn(Cc3cccc(N)c3)c(=O)c1n2C` [Example 20, 3-(3-aminobenzyl)-8-fluoro-7-methoxy-5-methyl-3,5-dihydro-4H-pyridazino[4,5-b]indol-4-one], for which the 50% effective concentration (EC50) was found to be 0.015 µM on human recombinant PKM2 and 0.067 µM in assay [1]. Also, the Emax turned out to be 199% on human recombinant PKM2 and 229% in assay [1].
`COc1cc2c(cc1F)c1cnn(Cc3cccc(C)n3)c(=O)c1n2C` [Example 52, 8-fluoro-7-methoxy-5-methyl-3-((6-methylpyridin-2-yl)methyl)-3,5-dihydro-4H-pyridazino[4,5-b]indol-4-one]: at human recombinant PKM2, the EC50 was 0.097 µM and the Emax came to 225%. In assay [1], the response was half-maximal at 0.066 µM (EC50) and the Emax was 305%.
Consider `Cn1c2cc(O)ccc2c2cnn(Cc3cccc(N)c3)c(=O)c21` [Example 15, 3-(3-Aminobenzyl)-7-hydroxy-5-methyl-3,5-dihydro-4H-pyridazino[4,5-b]indol-4-one], for which the EC50 at human recombinant PKM2 was 0.04 µM; in assay [1], 0.124 µM. In addition, the Emax at human recombinant PKM2 turned out to be 254%; in assay [1], 296%.
For the compound `COc1ccc2c3cnn(Cc4cn5ccccc5n4)c(=O)c3n(C)c2c1` [Example 11, 3-(Imidazo[1,2-a]pyridin-2-ylmethyl)-7-methoxy-5-methyl-3,5-dihydro-4H-pyridazino[4,5-b]indol-4-one], at human recombinant PKM2, the EC50 stood at 0.11 µM and the Emax worked out at 170%.
As to `Cn1c2cc(Oc3cccc(N)c3)ccc2c2cnn(Cc3cccc(N)c3)c(=O)c21` [Example 80, 3-(3-aminobenzyl)-7-(3-aminophenoxy)-5-methyl-3,5-dihydro-4H-pyridazino[4,5-b]indol-4-one], on human recombinant PKM2, the EC50 was 0.045 µM and the Emax was determined as 286%. In assay [1], the midpoint of the response, the EC50, lay at 0.235 µM and the Emax stood at 325%.
As for “3-((1H-pyrazol-3-yl)methyl)-7-41H-pyrazolo[4,3-c]pyridin-4-yl)oxy)-5-methyl-3,5-dihydro-4H-pyridazino[4,5-b]indol-4-one [Example 87]”, on human recombinant PKM2, the EC50 was 0.05 µM and the “Max Activation” value is recorded as 270%. Further, in assay [1], the response was half-maximal at 0.095 µM (EC50) and the “Max Activation (cell)” value was found to be 317%.
For `Cn1c2cc([S+](C)[O-])ccc2c2cnn(Cc3ccccc3)c(=O)c21` (stereo not drawn) [Example 5, 3-Benzyl-5-methyl-7-(methylsulfinyl)-3,5-dihydro-4H-pyridazino[4,5-b]indol-4-one], the EC50 at human recombinant PKM2 turned out to be 0.192 µM; in assay [1], 0.013 µM. The Emax amounted to 226% at human recombinant PKM2 and 295% in assay [1].
In the case of `Cc1ccc2c3cnn(Cc4ccccc4)c(=O)c3n(C)c2c1` [Example 1, 3-Benzyl-5,7-dimethyl-3,5-dihydro-4H-pyridazino[4,5-b]indol-4-one], on human recombinant PKM2, the EC50 amounted to 0.117 µM and the Emax is 212%. For the same compound, in assay [1], the midpoint of the response, the EC50, lay at 0.015 µM and the Emax came out at 431%.
As for `Cc1ccc2c3cnn(Cc4cccc(N)c4)c(=O)c3n(C)c2c1` [Example 3, 3-(3-Aminobenzyl)-5,7-dimethyl-3,5-dihydro-4H-pyridazino[4,5-b]indol-4-one], at human recombinant PKM2, the EC50 turned out to be 0.428 µM and the Emax is 193%. Moreover, in assay [1], the EC50 stood at 0.028 µM and the Emax was 310%.
`Cn1c2cc(Oc3cccc(F)n3)ccc2c2cnn(Cc3cccc4[nH]ncc34)c(=O)c21` [Example 85, 3-((1H-indazol-4-yl)methyl)-7-((6-fluoropyridin-2-yl)oxy)-5-methyl-3,5-dihydro-4H-pyridazino[4,5-b]indol-4-one]: on human recombinant PKM2, the 50% effective concentration (EC50) stood at 0.063 µM and the Emax is 330%. Also, in assay [1], a half-maximal effect (EC50) was put at 0.076 µM and the Emax was found to be 315%.
As to `CSc1ccc2c3cnn(Cc4ccccc4)c(=O)c3n(C)c2c1` [Example 4, 3-Benzyl-5-methyl-7-(methylthio)-3,5-dihydro-4H-pyridazino[4,5-b]indol-4-one], on human recombinant PKM2, the concentration giving a half-maximal response (EC50) turned out to be 0.527 µM and the Emax was 267%. For the same compound, in assay [1], it took 0.022 µM to reach a half-maximal effect (EC50) and the Emax stood at 309%.
Taken in the same sequence, the figures for `Cn1c2cc([S+](C)[O-])ccc2c2cnn(Cc3cccc(N)c3)c(=O)c21` (stereo not drawn) [Example 7, 3-(3-Aminobenzyl)-5-methyl-7-(methylsulfinyl)-3,5-dihydro-4H-pyridazino[4,5-b]indol-4-one] were 0.063 µM, 222%, 0.018 µM and 355%.
On to `Cn1c2cc(Oc3cccc(Cl)n3)ccc2c2cnn(Cc3cccc(N)c3)c(=O)c21` [Example 78, 3-(3-aminobenzyl)-7-((6-chloropyridin-2-yl)oxy)-5-methyl-3,5-dihydro-4H-pyridazino[4,5-b]indol-4-one], for which the figures for the 50% effective concentration (EC50) (at human recombinant PKM2; in assay [1]) were 0.035 µM and 0.047 µM, respectively. The values for the Emax (at human recombinant PKM2; in assay [1]) were 195% and 247%, respectively.
Consider `COc1cc2c(cc1F)c1cnn(Cc3cccc(N)c3)c(=O)c1n2C` [Example 53, 3-(3-aminobenzyl)-8-fluoro-7-methoxy-5-methyl-3,5-dihydro-4H-pyridazino[4,5-b]indol-4-one], for which, at human recombinant PKM2, the concentration for a half-maximal effect (EC50) amounted to 0.015 µM and the “Max Activation” value was found to be 199%. In addition, in assay [1], the EC50 worked out at 0.037 µM and the “Max Activation (cell)” value came out at 229%.
With `Cc1ccc2c3cnn(Cc4cccc(F)c4)c(=O)c3n(C)c2n1` [Example 18, 7-(3-fluorobenzyl)-2,9-dimethyl-7,9-dihydro-8H-pyrido[3′,2′:4,5]pyrrolo[2,3-d]pyridazin-8-one], the EC50 at human recombinant PKM2 was found to be 0.041 µM; in assay [1], 0.023 µM. The Emax on human recombinant PKM2 stood at 264%; in assay [1] it was 292%.
The matching figures for `Cn1c2cc(Oc3ncnc4[nH]ncc34)ccc2c2cnn(Cc3ccccc3F)c(=O)c21` [Example 73, 7-((1H-pyrazolo[3,4-d]pyrimidin-4-yl)oxy)-3-(2-fluorobenzyl)-5-methyl-3,5-dihydro-4H-pyridazino[4,5-b]indol-4-one]: 0.022 µM, 0.104 µM, 232% and 189%.
Turning to `COc1ccc(Cn2ncc3c4ccc(C)cc4n(C)c3c2=O)cc1` [Example 2, 3-(4-Methoxybenzyl)-5,7-dimethyl-3,5-dihydro-4H-pyridazino[4,5-b]indol-4-one], on human recombinant PKM2, the EC50 is 0.106 µM and the Emax stood at 90%.
As for `COc1ccc2c3cnn(Cc4ccc5ncccc5c4)c(=O)c3n(C)c2c1` [Example 12, 7-Methoxy-5-methyl-3-(quinolin-6-ylmethyl)-3,5-dihydro-4H-pyridazino[4,5-b]indol-4-one], on human recombinant PKM2, the half-maximal effective concentration (EC50) was 0.131 µM and the Emax came to 123%.
Taken in the same sequence, the figures for `COc1ccc2c(c1)c1cnn(Cc3cccc(N)c3)c(=O)c1n2C` [Example 27, 3-(3-aminobenzyl)-8-methoxy-5-methyl-3,5-dihydro-4H-pyridazino[4,5-b]indol-4-one] were 0.026 µM and 307%.

Source of the values: patent US20230374017A1, “COMPOSITIONS AND METHODS FOR ACTIVATING PYRUVATE KINASE” (The Regents of the University of Michigan, priority 2020, published 2023).
